Columns and labels:
[1] = test system: A2780 EOC cells; assay: Caspase-3/7 activity in A2780 cells, wt or MyD88 transfected, carboplatin versus paclitaxel; type: cell-based, human; settings: 100 μg/ml carboplatin or 2 μM paclitaxel, 48 hours; for caspase-3/7 activity: wildtype A2780
Protocol: (§1) Ten μg of protein in a 50 μl total volume was mixed with 50 μl of equilibrated reagents of a caspase assay kit, i.e., the CASPASE GLO™ 3/7 Assay (Promega). After incubating at room temperature for 1 h, luminescence was measured using TD 20/20 Luminometer (Turner Designs, Sunnyvale, Calif.). Blank values were subtracted and fold-increase in activity was calculated based on activity measured from untreated cells. Each sample was measured in triplicate.
Transfection was performed using a plasmid containing the full-length cDNA (SEQ ID NO:3) of human MyD88 (pUNO-hMyD88, Invivogen), which encodes the amino acid sequence of SEQ ID NO:4. CP70 and A2780 cells were grown in […] surface tissue culture flasks until they reached 50% confluence. 12 μl of the Fugene 6 Transfection reagent was added into 4 ml of serum-free media for each transfection. After 5 minutes of incubation at room temperature, 1 μg of the plasmid pUNO-hMyD88 was added to the serum-free media containing Fugene 6 Transfection Reagent, and the mixtures were incubated at room temperature for another 15 minutes. The growth media in each flask was discarded, and the corresponding Fugene 6-plasmid-serum-free-media mixture was added and the flasks were incubated overnight at 37° C. 5% CO2. The transfection media was replaced with fresh growth media the second day and the cells were allowed to recover for 24 hours post transfection before treatments.
Applicants also determined whether the expression of MyD88 confers resistance that is specific to paclitaxel. Wildtype (wt) A2780 EOC cells (carboplatin sensitive) and A2780 EOC cells transfected with MyD88 were treated with 100 μg/ml carboplatin or 2 μM paclitaxel for 48 hours. Apoptosis was determined by measuring caspase-3/7 activity.

[2] = test system: murine macrophages; settings: cited from earlier work
[3] = test system: MyD88- EOC cell lines; assay: CASPASE GLO 3/7 apoptosis assay, MyD88- EOC cell lines; type: cell-based, human; settings: 2 μM paclitaxel, 24 h
Protocol: as §1
(§2) Paclitaxel has been reported to be a potential ligand to TLR-4 (23). […] EOC cells were treated with 2 μM paclitaxel for 24 h and apoptosis was determined by measuring the activity of caspases-3 and -7 using a caspase assay kit CASPASE GLO™ 3/7 Assay.

[4] = test system: MyD88+ R182 EOC cells; assay: IL-6 secretion in R182 EOC cells with and without MyD88 RNAi; type: cell-based, human
Protocol: EOC cells were transiently transfected with a GFP-expressing plasmid containing silencing RNA (siRNA) directed against MyD88 (psiRNA-hMyD88, Invivogen, San Diego, Calif.). Briefly, 1.5×10^5 cells were seeded in 60 mm dishes and cultured overnight until 40-60% confluent. Cells were then transfected for 18 h with 2 μg of DNA using Fugene 6 Transfection reagent (Roche Applied Science, Indianapolis, Ind.). Ratio of Fugene to DNA was 3:1. Following transfection, cells were allowed to recover in growth media for 24 h prior to treatment.
In order to confirm that in MyD88^+ EOC cells, the ligation of TLR-4 by either LPS or paclitaxel induces the production of cytokines, Applicants inhibited its expression in MyD88^+ R182 EOC cells using RNA interference technology. […] These findings confirmed that the cytokine response in EOC cells following LPS and paclitaxel treatment involves signaling through MyD88.

[5] = test system: MyD88+ EOC cells; assay: Cytokine microarray (Fast Quant), MyD88+ EOC cells; type: cell-based, human; settings: 48 h; LPS 10 μg/ml or paclitaxel 20 μM
Protocol: (§3) A panel of 10 cytokines, pro and anti-inflammatory, was simultaneously evaluated using the Fast Quant Human II kit (Whatman/Schleicher & Schuell) according to the manufacturer instructions. The signal was detected using the Genepix 4000 microarray reader and the results were analyzed using the Genepix 3.0 software (Whatman/Schleicher & Schuell).
(§4) To further characterize the effect of paclitaxel and LPS on the secretion of several cytokines and chemokines in MyD88^+ and MyD88^− EOC cells, Applicants used a high throughput microarray system (Whatman/Schleicher & Schull) to measure the levels of IL-6, IL-4, IL-8, IL-12, RANTES, and IFN-γ. Cytokine secretion was measured in the supernatants of EOC cells following 48 h incubation with either LPS (10 μg/ml) or paclitaxel (20 μM).

[6] = test system: MyD88+ EOC cells; assay: CELLTITER96 cell viability / proliferation assay, MyD88+ EOC cells; type: cell-based, human; settings: EOC cells that express MyD88
Protocol: Cell viability was evaluated using a cell proliferation assay, i.e., the CELLTITER96® Aqueous One Solution Cell Proliferation Assay (Promega, Madison, Wis.) according to the manufacturer's instructions. The values from the treated cells were compared with the values generated from the untreated cells and reported as percent viability. Each experiment was performed at least three times.
Once the expression of TLR-4 in EOC samples was established, Applicants evaluated the biological function of this receptor and also evaluated the significance of MyD88 status. EOC cell lines expressing MyD88 (MyD88^+) and those shown to lack MyD88 (MyD88^−) were treated with increasing concentrations of LPS (one of the main ligands for TLR-4) for 24 h and 48 h and cell viability was determined using a cell proliferation assay, i.e., the CELLTITER96® AQueous One Solution Cell Proliferation Assay. […] Thus, LPS induced a time- and dose-dependent increase in cell proliferation in cells expressing MyD88, but not in MyD88− EOC cells. LPS had no effect on viability of OSE cell, which are also negative for MyD88 expression.

[7] = test system: MyD88- EOC cells; assay: Cytokine microarray (Fast Quant), MyD88- EOC cells; type: cell-based, human; settings: 48 h; LPS 10 μg/ml or paclitaxel 20 μM
Protocol: as §3, §4

[8] = test system: normal OSE cells; assay: CASPASE GLO 3/7 apoptosis assay, normal OSE cells; type: cell-based; settings: 2 μM paclitaxel, 24 h
[9] = test system: A2780 and CP70 EOC cells; assay: Caspase-3/7 activity in A2780 and CP70 cells, wt or transfected with pUNO-hMyD88; type: cell-based, human; settings: 48 h
Protocol: as §1
Transfection was performed using a plasmid containing the full-length cDNA (SEQ ID NO:3) of human MyD88 (pUNO-hMyD88, Invivogen), which encodes the amino acid sequence of SEQ ID NO:4. CP70 and A2780 cells were grown in […] surface tissue culture flasks until they reached 50% confluence. 12 μl of the Fugene 6 Transfection reagent was added into 4 ml of serum-free media for each transfection. […]
Because Applicants observed a positive correlation between MyD88 expression and resistance to paclitaxel-induced apoptosis, their next objective was to determine whether the induction of MyD88 expression in EOC might confer resistance to paclitaxel. […] After 24 h of transfection, the cells were either left untreated or treated with 2 μM paclitaxel for 48 h and caspase-3/7 activity was determined.

[10] = test system: MyD88+ cells; assay: Western blot of XIAP, pAkt and total Akt in MyD88+ cells; type: cell-based, human
Excerpt: Twenty μg protein were denatured in sample buffer (2.5% SDS, 10% glycerol, 5% β-mercapto-ethanol, 0.15 M Tris (pH=6.8) and 0.01% bromophenol blue) and subjected to 12% SDS-PAGE as previously described (17). Antibodies used: rabbit anti-TLR-4 (Santa Cruz Biotechnology, Santa Cruz, Calif., 1:1,000), rabbit anti-MyD88 (eBiosciences, San Diego, Calif., 1:1,000), mouse anti-NF-κB (Santa Cruz Biotechnology, 1:1,000), mouse anti-DNA topoisomerase 1 (BD Biosciences, San Jose, Calif., 1:500) and, rabbit anti-actin (Sigma Chemical Co., 1:10,000). Proteins were visualized using enhanced chemiluminescence (Pierce Biotechnology).
TLR-4 ligation through NF-κB and inflammatory molecules promotes cell survival by the induction of the expression of anti-apoptotic proteins (24, 25). The expression of X-linked inhibitor of apoptosis (XIAP), a major inhibitor of caspase-3 and 9, and the expression of Akt has been associated with tumor growth and chemoresistance in ovarian cancer cells (26-28). Therefore, Applicants evaluated the expression of XIAP and phosphorylated Akt (pAkt) following paclitaxel treatment in MyD88^+ cells. […] Similarly, XIAP levels increased 2 h post-treatment. In contrast, no change on the levels of total Akt was observed.

[11] = test system: MyD88+ EOC cells; assay: CASPASE GLO 3/7 apoptosis assay, MyD88+ EOC cells; type: cell-based, human; settings: 2 μM paclitaxel, 24 h
Protocol: as §1, §2

[12] = test system: MyD88+ EOC cells; assay: Cytokine ELISA (GRO-α, MCP-1, IL-6), MyD88+ EOC cells; type: cell-based, human; settings: increasing concentrations of paclitaxel, 24 h, 48 h, 72 h; dose- and time-dependent, p<0.01
Protocol: (§5) The concentrations of the IL-6, GRO-α, MCP-1 were evaluated by ELISA, according to the manufacturer's instructions. (R&D Systems, Minneapolis, Minn.)
(§6) EOC cell lines were treated for 48 h with 10 μg/ml LPS and the levels of GRO-α, MCP-1, and IL-6 were determined. […] Unstimulated MyD88^+ EOC cells constitutively express all the cytokines tested. […] In contrast, unstimulated MyD88^− EOC cells secreted undetectable or low levels of these pro-inflammatory cytokines, which were not affected by TLR-4 ligation with LPS.
(§7) MyD88^+ and MyD88^− EOC cells were treated with increasing concentrations of paclitaxel for 24 h, 48 h, and 72 h and levels of IL-6 secretion were determined by ELISA.

[13] = test system: MyD88- EOC cells; assay: Cytokine ELISA (GRO-α, MCP-1, IL-6), MyD88- EOC cells; type: cell-based, human; settings: increasing concentrations of paclitaxel, 24 h, 48 h, 72 h
Protocol: as §5, §6, §7

Compound: N.N.O=C([O-])C1(C(=O)[O-])CCC1.[Pt+2] [carboplatin]
- sensitivity (apoptosis by caspase-3/7 activity) ([1]; A2780 transfected with MyD88): retained its sensitivity
- caspase-3/7 activity [1]: significant increase

Compound: CC(=O)O[C@H]1C(=O)[C@@]2(C)[C@H]([C@H](OC(=O)c3ccccc3)[C@]3(O)C[C@H](OC(=O)[C@H](O)[C@@H](NC(=O)c4ccccc4)c4ccccc4)C(C)=C1C3(C)C)[C@]1(OC(C)=O)CO[C@@H]1C[C@@H]2O [paclitaxel]
- secretion of inflammatory cytokines, including TNFα, IL-6 and IL-8 ([2]; TLR-4 and MyD88 dependent): induces the secretion of inflammatory cytokines
- macrophage activation ([2]; studies by Ding et al): activates murine macrophages
- caspase-3/7 activity [3]: significant increase
- IL-6 secretion ([4]; R182 cells after inhibition of MyD88 expression by RNAi): decreased IL-6 secretion
- IL-6 production ([4]; wild type R182 cells, LPS 10 μg/ml or paclitaxel 2 μM): high levels of IL-6
- secretion of IL-4, IL-12 and IFN-γ [5]: neither MyD88^+ nor MyD88^− EOC cells secreted detectable levels
- secretion of IL-6, IL-8 and RANTES [5]: increased secretion
- proliferation in culture upon TLR-4 ligation [6]: proliferate in culture
- secretion of IL-4, IL-12 and IFN-γ [7]: neither MyD88^+ nor MyD88^− EOC cells secreted detectable levels
- secretion of IL-6, IL-8 or RANTES [7]: neither constitutive secretion nor LPS- or paclitaxel-induced
- caspase activity [8]: Significant increase
- caspase-3/7 activity ([9]; cells transfected with pUNO-hMyD88, 2 μM paclitaxel): no changes
- caspase-3/7 activity ([9]; wt cells, 2 μM paclitaxel): significant increase
- XIAP levels ([10]; 2 h post-treatment): increased
- phosphorylated Akt (pAkt) ([10]; 4 h after treatment): significant increase
- levels of total Akt ([10]; after paclitaxel treatment): no change
- caspase-3/7 activity [11]: no significant change
- caspase-3/7 activity [1]: significant increase
- IL-6 production [12]: significant increase
- IL-6 levels [13]: did not affect
